Assay results from patent US20250302823A1, “COMPOSITIONS AND METHODS FOR TREATING HEPATIC […] GLYCINE TRANSPORT INHIBITORS” (Disc Medicine, Inc., priority 2022, published 2025).

Tests used:
[1] = tested on: ALAS1 and GlyT1 mRNA in HepG2 cells; test: qPCR expression of ALAS1 and GlyT1 in HepG2 cells after phenobarbital
[2] = tested on: HepG2 cells transduced with shHMBS, GlyT1, ALAS1; test: 5-ALA and PBG production in AIP cellular model (HepG2 with shHMBS, GlyT1, ALAS1); format: cell-based, human
Source text: The hepatic origin cell line HepG2 was engineered to express shRNA against HMBS, a gene in the heme biosynthesis pathway whose loss-of-function mutations cause hepatic porphyria. The shRNA reduced HMBS mRNA by 50% and HMBS protein by 70%. Hepatic porphyria is a dormant disease activated by increased expression of ALAS1. To establish the cellular model that resembles the pathologic status of hepatic porphyria, the HepG2 cells with HMBS knockdown were also transduced by lentivirus to overexpress ALAS1 and GlyT1.
The normal plasma glycine concentration in human adults ranges from 0.12 to 0.55 mM. To confirm GlyT1 inhibitors such as bitopertin can decrease production of toxic metabolites at physiological condition, the modified HepG2 cells were treated with bitopertin in the presence of different concentrations of glycine (0.1-1 mM).

[3] = molecular target: T1, GlyT1 (Homo sapiens, UniProt P48067); test: 3H-glycine uptake in HepG2 cells overexpressing GlyT1; format: cell-based
T1 construct: expressed in transfected cells; host or cells: HepG2, lentiviral infection (pLenti6.3-GlyT1)
T1 sequence (P48067 1-706): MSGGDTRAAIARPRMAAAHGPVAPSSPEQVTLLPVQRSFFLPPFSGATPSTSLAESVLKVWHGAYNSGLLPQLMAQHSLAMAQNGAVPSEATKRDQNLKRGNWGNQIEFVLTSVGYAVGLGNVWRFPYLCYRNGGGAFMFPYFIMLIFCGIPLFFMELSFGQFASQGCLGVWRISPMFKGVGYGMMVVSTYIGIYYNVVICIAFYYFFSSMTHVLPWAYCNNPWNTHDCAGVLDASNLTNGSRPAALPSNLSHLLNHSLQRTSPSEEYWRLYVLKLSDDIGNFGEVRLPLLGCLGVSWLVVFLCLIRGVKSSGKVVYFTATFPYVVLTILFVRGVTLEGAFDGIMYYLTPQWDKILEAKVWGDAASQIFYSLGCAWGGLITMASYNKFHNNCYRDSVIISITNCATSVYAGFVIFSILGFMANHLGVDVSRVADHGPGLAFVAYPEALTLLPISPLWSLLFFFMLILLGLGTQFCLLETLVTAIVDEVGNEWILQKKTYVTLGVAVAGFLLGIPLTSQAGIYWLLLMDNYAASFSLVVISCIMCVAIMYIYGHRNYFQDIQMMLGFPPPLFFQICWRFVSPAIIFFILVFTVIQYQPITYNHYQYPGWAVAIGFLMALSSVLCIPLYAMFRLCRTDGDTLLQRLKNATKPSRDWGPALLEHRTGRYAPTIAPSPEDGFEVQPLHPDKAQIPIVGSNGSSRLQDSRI
Procedure: The hepatic originated cell line HepG2 cell was engineered via lentiviral infection to overexpress untagged GlyT1 (FIG. 4A) or HA-Flag-tagged GlyT1 (FIG. 4B). Overexpression of GlyT1 was used to mimic the phenobarbital induced AIP symptoms observed in HepG2 as described in Example 3. The HA-Flag tagged construct was used to confirm the overexpression of the GlyT1 protein by Western blot. Overexpression of the untagged construct was confirmed by qPCR. The cells were cultured in the presence of the GlyT1 inhibitor bitopertin at room temperature for 60 min and then incubated with 20 nM ^3H-labeled glycine in the presence of 25 μM unlabeled glycine for 60 min. The uptake of glycine was measured by detection of radioisotope levels.

Compound | increase of mRNA of ALAS1 and GlyT1 ([1]; HepG2, 24 h after phenobarbital treatment) [fold] | increase of mRNA of ALAS1 and GlyT1 ([1]; HepG2, 48 h after phenobarbital treatment) [fold] | toxic metabolite 5-ALA at different glycine concentrations ([2]; glycine 0.1-1 mM in medium, FIG. 6A) | toxic metabolite PBG at different glycine concentrations ([2]; glycine 0.1-1 mM in medium, FIG. 6B) | production of toxic metabolite 5-ALA ([2]; modified HepG2 cells, FIG. 5A) | production of toxic metabolite PBG ([2]; modified HepG2 cells, FIG. 5B) | IC50 ([3]; engineered HepG2 overexpressing untagged or HA-Flag-tagged GlyT1, 20 nM 3H-glycine + 25 μM unlabeled glycine, 60 min) [nM] | glycine uptake in the engineered HepG2 cells ([3]; in the presence of bitopertin)
CCC1(c2ccccc2)C(=O)NC(=O)NC1=O [phenobarbital] | 3 | 6 | – | – | – | – | – | –
C[C@H](Oc1ccc(S(C)(=O)=O)cc1C(=O)N1CCN(c2ncc(C(F)(F)F)cc2F)CC1)C(F)(F)F [bitopertin] | – | – | consistent reduction | consistent reduction | significantly decrease | significantly decrease | 710 to 1540 | significantly reduced
